From ChEMBL document CHEMBL3244164, “Synthesis and analgesic activity of 1,3-dihydro-3-(substituted phenyl)imidazo[4,5-b]pyridin-2-ones and 3-(substituted phenyl)-1,2,3-triazolo[4,5-b]pyridines” (J Med Chem, 1978)

How the values were obtained:
Rattus norvegicus [1] = test: Analgesic activity in Sprague-Dawley rat brewer's yeast treated foot assessed as response threshold at 32 mg/kg, po; assay type: functional
Rattus norvegicus [2] = test: Analgesic activity in Sprague-Dawley rat normal foot assessed as response threshold at 32 mg/kg, po; assay type: functional

Row | SMILES | Activity (Rattus norvegicus [1]) | Activity (Rattus norvegicus [2])
1 | COc1ccc(-n2nnc3cccnc32)cc1OC | <25 mm | <40 mm
2 | Clc1ccccc1-n1nnc2cccnc21 | 25 mm | <40 mm
3 | O=c1n(CCc2ccccc2)c2cccnc2n1-c1ccc2c(c1)OCO2 | <25 mm | <40 mm
4 | CN(C)c1ccc(-n2nnc3cccnc32)cc1 | <25 mm | <40 mm
5 | COC(=O)c1cnc2c(c1)[nH]c(=O)n2-c1ccc2c(c1)OCO2 | <25 mm | <40 mm
6 | CC(C)c1ccccc1-n1c(=O)[nH]c2cccnc21 | <25 mm | <40 mm
7 | O=c1[nH]c2cccnc2n1-c1ccc(F)cc1F | 25 mm | <40 mm
8 | Fc1ccc(-n2nnc3cccnc32)cc1 | <25 mm | <40 mm
9 | CC1(C)Oc2ccc(-n3nnc4cccnc43)cc2O1 | <25 mm | <40 mm
10 | O=c1[nH]c2cccnc2n1-c1ccc2c(c1)OC1(CCCCC1)O2 | <25 mm | <40 mm
11 | COc1ccc(-n2c(=O)[nH]c3cccnc32)cc1OC | <25 mm | <40 mm
12 | O=c1[nH]c2cccnc2n1-c1ccc2c(c1)OCCO2 | <25 mm | <40 mm
13 | O=c1[nH]c2cccnc2n1-c1ccc(Cl)cc1 | <25 mm | <40 mm
14 | O=c1[nH]c2cccnc2n1-c1ccc2c(c1)COC2 | <25 mm | <40 mm
15 | O=c1[nH]c2cccnc2n1C1CCCCC1 | <25 mm | <40 mm
16 | Cc1cnc2c(c1)nnn2-c1ccccc1F | <25 mm | <40 mm
17 | COc1cc(-n2c(=O)[nH]c3cccnc32)cc(OC)c1OC | <25 mm | <40 mm
18 | CC(C)Cc1ccc(-n2nnc3cccnc32)cc1 | <25 mm | <40 mm
19 | CN(C)CCCn1c(=O)n(-c2ccc3c(c2)OCO3)c2ncccc21 | <25 mm | <40 mm
20 | C=C=Cn1c(=O)n(-c2ccc3c(c2)OCO3)c2ncccc21 | <25 mm | <40 mm
21 | CCC(C)n1c(=O)n(-c2ccc3c(c2)OCO3)c2ncccc21 (stereo not given) | <25 mm | <40 mm
22 | C=CCn1c(=O)n(-c2ccc3c(c2)OCO3)c2ccccc21 | <25 mm | <40 mm
23 | c1ccc(CCn2nnc3cccnc32)cc1 | <25 mm | <40 mm

Row | SMILES | Activity (Rattus norvegicus [1]) | Activity (Rattus norvegicus [2])
24 | COc1ccccc1-n1nnc2cccnc21 | 25 mm | <40 mm
25 | c1ccc(-n2nnc3cccnc32)cc1 | <25 mm | <40 mm
26 | O=c1n(-c2ccc3c(c2)OCO3)c2ncccc2n1C(F)(F)C(F)Cl (stereo not given) | <25 mm | <40 mm
27 | O=C(C1CC1)n1c(=O)n(-c2ccc3c(c2)OCO3)c2ncccc21 | <25 mm | <40 mm
28 | O=C(O)Cc1ccc(-n2c(=O)[nH]c3cccnc32)cc1 | <25 mm | <40 mm
29 | CCOC(=O)c1cccc(-n2c(=O)[nH]c3cccnc32)c1 | <25 mm | <40 mm
30 | O=c1[nH]c2cccnc2n1-c1cc(F)ccc1F | <25 mm | <40 mm
31 | C=CCn1c(=O)n(-c2ccc3c(c2)OCO3)c2ncccc21.CI | <25 mm | <40 mm
32 | COC(=O)c1cnc2c(c1)nnn2-c1ccccc1F | <25 mm | <40 mm
33 | Cc1ccc(F)c(-n2nnc3cccnc32)c1 | <25 mm | <40 mm
34 | C#CCn1c(=O)n(-c2ccc3c(c2)OCO3)c2ncccc21 | <25 mm | <40 mm
35 | O=c1[nH]c2cccnc2n1-c1ccccc1Br | 25 mm | <40 mm
36 | Clc1ccc(-n2nnc3cccnc32)c(Cl)c1 | <25 mm | 40 mm
37 | c1cnc2c(c1)nnn2-c1ccncc1 | <25 mm | <40 mm
38 | CSCn1c(=O)n(-c2ccccc2)c2ncccc21 | 25 mm | <40 mm
39 | c1cnc2c(c1)nnn2-c1ccc2c(c1)COC2 | <25 mm | <40 mm
40 | C=CCn1c(=O)n(-c2ccc3c(c2)CCC3)c2ncccc21 | <25 mm | <40 mm
41 | O=c1[nH]c2cccnc2n1Cc1ccc2c(c1)OCO2 | <25 mm | <40 mm
42 | Cc1ccc(-n2c(=O)[nH]c3cccnc32)cc1C | <25 mm | <40 mm
43 | O=c1[nH]c2cccnc2n1Cc1ccc(F)cc1 | <25 mm | <40 mm
44 | CCCCNC(=O)n1c(=O)n(-c2ccc3c(c2)OCO3)c2ncccc21 | <25 mm | <40 mm
45 | Nc1cnc2c(c1)[nH]c(=O)n2-c1ccccc1F | <25 mm | <40 mm
